Like-named read-outs stand apart in the source and are kept apart here.

Here are results for twelve compounds from patent publication US20110039693A1, “Pyrimidylmethyl Sulfonamide Compounds” (BASF SE, priority 2008, published 2011).

The test system of data set [1] is Pyrenophora teres. In words: Synergistic mixture microtiter test: Pyrenophora teres. The data set is classed as cell-based. The settings on record: single compound.
For data set [2], the system named is Puccinia recondita. The data set is described as follows: Synergistic mixture glasshouse trial: preventative control of brown rust caused by Puccinia recondita. The format is in vivo. The settings on record: single compound, wheat, untreated control 80% diseased leaf area. How it is done: The spray solutions were prepared in several steps: The stock solution were prepared: a mixture of acetone and/or dimethylsulfoxide and the wetting agent/emulsifier Wettol, which is based on ethoxylated alkylphenoles, in a relation (volume) solvent-emulsifier of 99 to 1 was added to 25 mg of the compound to give a total of 10 ml. Water was then added to total volume of 100 ml. This stock solution was diluted with the described solvent-emulsifier-water mixture to the given concentration.
The first two developed leaves of pot-grown wheat seedling were sprayed to run-off with an aqueous suspension, containing the concentration of active ingredient or their mixture as described below. The next day the plants were inoculated with spores of Puccinia recondita. To ensure the success the artificial inoculation, the plants were transferred to a humid chamber without light and a relative humidity of 95 to 99% and 20 to 22° C. for 24 h. Then the trial plants were cultivated for 6 days in a greenhouse chamber at 22-26° C. and a relative humidity between 65 and 70%. The extent of fungal attack on the leaves was visually assessed as % diseased leaf area.
The percentages diseased leaf area were converted into efficacies. An efficacy of 0 means that the infection level of the treated plants corresponds to that of the untreated control plants; an efficacy of 100 means that the treated plants were not infected.
The expected efficacies of active compound mixtures were determined using Colby's formula as described earlier herein.

Data set [3] deals with Septoria tritici. The data set is described as follows: Synergistic mixture microtiter test: leaf blotch on wheat caused by Septoria tritici. The data set is classed as cell-based. The following applies: single compound.
Data set [4] has as its system Alternaria solani. The data set is described as follows: Synergistic mixture microtiter test: Alternaria solani. The format is cell-based. The settings on record: single compound.
In data set [5] the test system is Phytophthora infestans. The format is cell-based. The following applies: single compound.

Take `Fc1ccc([C@]2(Cn3cncn3)O[C@H]2c2ccccc2Cl)cc1` (racemic) [Epoxiconazole, epoxiconazole, reference compound]: the “Observed efficacy (%)” value is on record as 8% in data set [1] (0.25 ppm) and 0% in data set [2] (0.25 ppm).
For the compound `O=C(Nc1ccccc1-c1ccc(Cl)cc1)c1cccnc1Cl` [Boscalid, boscalid, reference compound], the “Observed efficacy (%)” value was 0% in data set [1] (0.016 ppm); 63% in data set [1] (0.25 ppm); 0% in data set [2] (4 ppm); 0% in data set [2] (16 ppm); 75% in data set [3] (4 ppm).
As for `CSc1nccc(CNS(=O)(=O)c2ccc(Oc3ncc(C(F)(F)F)cc3Cl)cc2)n1` [Example I-5], the “Observed efficacy (%)” value in data set [1] (0.25 ppm) is 0%; in data set [1] (4 ppm) it was 21%; in data set [3] (4 ppm), 22%; in data set [4] (0.25 ppm), 2%.
A word on the melting point: it is the temperature of the solid-liquid transition. `COc1nccc(CNS(=O)(=O)c2ccc(Oc3ncc(C(F)(F)F)cc3Cl)c(C)c2)n1` [Example I-17, 4-(3-chloro-5-trifluoromethyl-pyridin-2-yloxy)-N-(2-methoxy-pyrimidin-4-ylmethyl)-3-methyl-benzenesulfonamide] returned a melting point of 138 °C.
As to `COc1nccc(CNS(=O)(=O)c2ccc(Oc3ccc(C(F)(F)F)cn3)cc2C)n1` [Example I-22], the “Observed efficacy (%)” value was 1% in data set [1] (0.016 ppm) and 3% in data set [4] (0.25 ppm).
As for `O=S(=O)(NCc1ccnc(C2CC2)n1)c1ccc(Oc2ncccc2C(F)(F)F)cc1` [Example I-27], the “Observed efficacy (%)” value is reported as 26% in data set [1] (4 ppm); 27% in data set [2] (16 ppm); 27% in data set [3] (4 ppm); 3% in data set [4] (0.25 ppm); 0% in data set [4] (4 ppm).
On to `CCOc1nccc(CNS(=O)(=O)c2ccc(Oc3ncccc3C(F)(F)F)cc2)n1` [Example I-52], for which the “Observed efficacy (%)” value in data set [2] (16 ppm) was determined as 29%; in data set [5] (16 ppm) it was 53%; in data set [3] (4 ppm), 29%; in data set [4] (0.25 ppm), 0%; in data set [4] (4 ppm), 0%.
On to `CSc1ncc(F)c(CNS(=O)(=O)c2ccc(Oc3ccc(C(F)(F)F)cn3)cc2)n1` [Example I-72], for which the “Observed efficacy (%)” value in data set [1] (4 ppm) is reported as 14%; in data set [2] (4 ppm) it was 0%; in data set [2] (16 ppm) it was 0%; in data set [3] (4 ppm) it was 14%; in data set [4] (0.25 ppm) it was 3%.
For the compound `COc1cc(CNS(=O)(=O)c2ccc(Oc3ccc(C(F)(F)F)cn3)cc2)nc(OC)n1` [Example I-88], the “Observed efficacy (%)” value was determined as 16% in data set [1] (0.25 ppm) and 4% in data set [4] (0.25 ppm).
Consider `COc1cc(CNS(=O)(=O)c2ccc(Oc3ncc(C(F)(F)F)cc3Cl)cc2)nc(OC)n1` [Example I-118], for which the “Observed efficacy (%)” value in data set [3] (4 ppm) is recorded as 25%; in data set [4] (0.25 ppm), 1%.
Take `COc1nccc(CNS(=O)(=O)c2ccc(OCc3cncc(C(F)(F)F)c3)cc2)n1` [Example I-125]: the results for the “Observed efficacy (%)” value in data set [2] (4 ppm), in data set [3] (4 ppm) and in data set [4] (0.25 ppm) were 13%, 23% and 4%, respectively.
In the case of `COC(=O)N(OC)c1ccccc1COc1ccn(-c2ccc(Cl)cc2)n1` [Pyraclostrobin, pyraclostrobin, reference compound], the “Observed efficacy (%)” value worked out at 0% in data set [1] (0.004 ppm); 0% in data set [2] (0.25 ppm); 38% in data set [5] (0.25 ppm); 74% in data set [3] (0.063 ppm); 48% in data set [4] (0.063 ppm).
